One data set deals with healthy human volunteer. As to the kind of experiment: Rectal micro-enema in a healthy human volunteer, urinary excretion. The format is in vivo. Conditions: 100 mg allopurinol equivalents. As to the method:
The dose given (2 ml of a 0.5% methylcellulose solution containing 118 mg/ml of the prodrug) corresponded to 100 mg of allopurinol. Urine was collected over 5 days and aliquots were assayed for allopurinol and oxipurinol by a specific HPLC assay.

The subject of data set [1] is rabbits. As to the kind of experiment: Intravenous administration to four rabbits, plasma levels. The format is in vivo, rabbit. The note with it: i.v., 25 mg allopurinol equivalents.
A short description of data set [2]: In-vitro cleavage of allopurinol derivatives to allopurinol in pH 7.4 buffer at 37° C. The data set is classed as physicochemical. The note with it: read-out: Half-time (t0.5) of the conversion to allopurinol, pH 7.4 buffer (converted). The procedure:
(§1) In-vitro cleavage of allopurinol derivatives
(§2) Solutions of various derivatives of allopurinol in aqueous buffer solutions or 80% human plasma solutions (pH 7.4) were kept at 37° C. The initial concentration of the derivatives was in the range 0.01-0.1 mg/ml. At various times an aliquot of the solutions was withdrawn and analyzed by HPLC for remaining derivative as well as for allopurinol. For the plasma solutions the aliquot withdrawn was deproteinized with ethanol or trichloroacetic acid and after centrifugation, the clear supernatant was injected on HPLC.
(§3) An HPLC method was used for the determination of allopurinol and its derivatives. In this method a reversed-phase LiChrosorb RP-8 column (250×4 mm) was eluated at ambient temperature with mixtures of methanol and 0.01M acetate buffer pH 4.5 or methanol and 0.03M phosphate buffer pH 7.0. The composition of the eluant was adjusted for each compound in order to provide an appropriate retention time. The flow rate was 1.2 ml/min and the column effluent was monitored spectrophotometrically at 252 nm or 274 nm. Quantitation of the compounds was done by measurement of peak heights.
(§4) The half-times of allopurinol formation from various derivatives at physiological conditions of pH and temperature are given in Table 2. It can be seen that in the presence of human plasma the rate of degradation is strongly accelerated, thus showing the susceptibility of the derivatives to undergo conversion into the parent active compound at conditions simiar to those prevailing in vivo.

A further data set is described as follows: physchem. Conditions: for solubility: water. As to the method: (§5) The water-solubility and lipophilicity of the allopurinol drugs
(§6) The apparent partition coefficients (P) for some allopurinol derivatives and allopurinol were measured using the widely used 1-octanol-water system. Similarly, the solubility of the derivatives in water or aqueous buffer solutions was determined.

Data set [3] in a line: In-vitro cleavage of allopurinol derivatives to allopurinol in 80% human plasma (pH 7.4) at 37° C. The data set is classed as in vitro ADME. Conditions: 80% plasma, pH 7.4, 37° C, read-out: Half-time (t0.5) of the conversion to allopurinol, 80% human plasma (converted). As to the method:
as §1, §2, §3, §4

The procedure of data set [4]: as §5, §6
For data set [5], the system named is man. The note with it: rectal, various suppository preparations; cited from earlier work.
For data set [6], the system named is rabbits. As to the kind of experiment: Bioavailability following rectal administration to rabbits (suppositories, micro-enemas). The note with it: rabbits, rectal suppositories, 25 mg allopurinol equivalents, all three blood sampling times.
Protocol: (§7) The suppositories or micro-enemas were administered to rabbits. After drug administration, blood samples were taken at various times and the plasma fraction assayed for allopurinol and its major metabolite oxipurinol using the HPLC method described above.
Assay in data set [7]: as above
Conditions: rabbit, in vivo, 25 mg.
Protocol: as §7

The conditions of data set [8]: cited from earlier work.
Data set [9] can be described thus: Comparative absorption study following peroral administration, urinary excretion. The format is in vivo. Conditions: urine, po, human, dose corresponding to 100 mg allopurinol, read-out: total urinary excretion of allopurinol and oxipurinol. The procedure: A comparative absorption study was also made of allopurinol and the above mentioned prodrug following peroral administration. […] The total urinary excretion of allopurinol and oxipurinol was measured and found to correspond to 67% of the dose given for the allopurinol tablet and 92% for the preparation containing the prodrug derivative.

The conditions of data set [10]: intravenous (Breithaupt & Tittel, 1982); cited from earlier work.
The test system of data set [11] is man. The note with it: cited from earlier work.
For data set [12] the following is noted: in vivo; cited from earlier work.

≈ marks a conversion by molar mass, not a printed value. Where a name gives a salt, the structure may show the parent alone. Read-outs that look alike come from different tables or passages of the source. Where only a bound is given, the exact number is not on record here.

Consider six compounds from patent US4694006A, “Acyl- or acyloxymethyl-allopurinol prodrugs” (priority 1983, dated 1987).

In general, solubility refers to the dissolved amount per volume that the medium holds. `CCN(CC)CC(=O)OCn1ncc2c(=O)[nH]cnc21`: the “bioavailability of the parent drug from the prodrug given rectally” value with healthy human volunteer was “virtually complete bioavailability”. Further, the “bioavailability of the parent drug from the prodrug given intravenously” value with rabbits [1] is recorded as “almost complete bioavailability”. In [2], the half-life was 0.817 h. Moreover, in the data set “physchem”, the “aqueous solubility relative to the parent compound (factor)” value is 5,000 and the solubility is more than 500000 µg/mL. Also, in data set [3], the half-life was 0.167 h.
As a reminder, the log P is the decadic logarithm of the partition coefficient of the neutral form, usually between octanol and water. Low values mean a more hydrophilic compound, high ones a more lipophilic compound. Take `CCN(CC)C(=O)CCC(=O)OCn1ncc2c(O)ncnc21` [1-[3-(N,N-Diethylcarbamoyl)propionyloxymethyl]allopurinol]: the half-life in [2] is 81 h; in data set [3] it was 8.4 h. The concentration in solution in “physchem” (solubility) was 33000 µg/mL (≈ 103 mM). Further, the lipophilicity (log P) in [4] was -0.22.
On to `CCCC(=O)OCn1cc2c(=O)n(COC(=O)CCC)cnc2n1` [2,5-bis(Butyryloxymethyl)allopurinol], for which the half-life was 35 h in data set [2] and 0.533 h in data set [3]. The solubility in the data set “physchem” came to 94 µg/mL (≈ 0.279 mM). Further, in data set [4], the log partition coefficient (log P) was 1.60.
For `CCCC(=O)OCn1cc2c(=O)[nH]cnc2n1` [2-(Butyryloxymethyl)allopurinol], the half-life in [2] was 54 h; in data set [3] it was 0.367 h. For the same compound, in the data set “physchem”, the concentration in solution (solubility) came to 1500 µg/mL (≈ 6.35 mM). Moreover, the “log P” value in data set [4] is 0.33.
Regarding `Oc1ncnc2[nH]ncc12` [Allopurinol, allopurinol], the “plasma levels of allopurinol after intravenous administration” value with rabbits [1] (all blood sampling times) is on record as “below 1 μg/ml”. Further, the “amount absorbed from suppository preparations administered rectally” value with man [5] is on record as less than 5%. Also, the “plasma levels of allopurinol after rectal administration” value in the data set with rabbits [6] was “below 1 μg/ml”. In addition, the Fa in data set [7] is less than 2%. In addition, in data set [8] (25° C), the solubility in water result is listed as “about 0.5 mg/ml”. In the data set “physchem”, the solubility was 500 µg/mL (≈ 3.67 mM). Also, in data set [4] (Between octanol and water), the lipophilicity (log P) is -0.55. Also, in data set [9], the dose excreted was determined as 67%. For the same compound, in [10], the “dose recovered in the urine as intact allopurinol” value is on record as 12% and the “dose recovered in the urine, total” value was “about 88%”. Also, the “absolute systemic bioavailability of oral tablets” value in the data set on man [11] (man, oral tablets (Appelbaum et al., 1982)) is listed as “about 70%”. Further, in the data set on man [11] (oral dose (Elion et al., 1966)), the “oral dose excreted in the stool unchanged” value is reported as 20-25%.
For the compound `Oc1ncnc2[nH]ncc12` [sodium salt of allopurinol], in data set [8] (sodium salt of allopurinol at 0.5-1%), the “pH of infusion fluids” value is listed as 10.5-11.5. In [12], the “adverse effects of administration of infusion fluids” value was “may cause thrombophlebitis or perivascular inflammation”.
